Test results published in paper PMC4666645 (PLoS Pathogens, 2015).
Structures can show the parent of a compound that is named as a salt. Where two headings read alike, the source gives them in different places.

Key:
[1] = target: Hco-26/27 receptor (Haemonchus contortus, UniProt A9XX30+S4VAP0); test: cell-based
Description: In order to investigate if the overlapping expression contributed to functional receptors, we co-expressed Hco-ACR-26 and Hco-ACR-27 in Xenopus laevis oocytes. We have previously reported that the functional expression of nematode muscle AChRs in Xenopus oocytes requires the addition of ancillary proteins. Therefore, cRNAs encoding the subunits Hco-ACR-26 and Hco-ACR-27, in combination with three ancillary proteins (Hco-ric-3.1, Hco-unc-74 and Hco-unc-50) were co-injected into Xenopus oocytes. […] Subsequently, different cRNA combinations were injected into Xenopus oocytes in order to determine the minimal subunit combination leading to the expression of a functional receptor and verify the ancillary factor requirement.
The subunit stoichiometry has been previously reported to impact the pharmacological properties of some nematode AChRs expressed in Xenopus oocytes.
(§1) H. contortus and P. equorum acr-26 and acr-27 cDNAs were PCR-amplified using primers containing a restriction site in order to be sub-cloned into the expression vector pTB207 that is suitable for in vitro transcription. Primers are listed in S3 Table. The resulting plasmids were linearized with the NheI restriction enzyme (Fermantas) and used as templates for cRNA synthesis using the T7 mMessage mMachine kit (Ambion). Xenopus laevis ovaries were obtained from the University of Rennes, France (CRB Xenope) and defolliculated using 2 mg/ml collagenase type II (Gibco) in the incubation solution containing: 100 mM NaCl, 2 mM KCl, 1.8 mM CaCl2.2H2O, 1 mM MgCl2.6H2O, 5 mM HEPES, 2.5 mM C3H3NaO3, pH 7.5, supplemented with penicillin 100 U/mL and streptomycin 100 μg/mL). The oocytes were injected in the animal pole with a total volume of 36 nL of cRNA mix containing 50 ng/μL of each cRNA in RNase-free water using the Drummond nanoject II microinjector. Microinjected oocytes were kept at 20°C in incubation medium for 4 days to allow the receptors expression. Two-electrode voltage-clamp recordings were carried out using an Oocyte Clamp OC-725C amplifier (Warner instrument) in oocytes being voltage-clamped at -60mV. All agonist preparations were prepared with recording buffer (100 mM NaCl, 2.5 mM KCl, 1 mM CaCl2.2H2O, 5 mM HEPES, pH 7.3). Currents were recorded and analyzed using the pCLAMP 10.4 package (Molecular Devices).

[2] = target: Peq-26/27 receptor (Parascaris equorum, UniProt A0A0U2ES47+A0A0U2ES58); test: cell-based
Experimental: In order to determine if ACR-26 and ACR-27 subunits from other parasitic nematodes species could also form functional receptors when expressed in Xenopus oocyte, Peq-acr-26 and Peq-acr-27 cRNAs from the distantly related P. equorum (Clade III) were co-injected in combination with Hco-ric-3.1, Hco-unc-74 and Hco-unc-50 cRNAs. Four days after injection, we observed robust expression of a functional AChR responding to 100 μM ACh (Fig 6B). […] This novel heteropentameric AChR was named Peq-26/27.
as §1

[3] = 100 μM agonist, normalized to 100 μM ACh current, equal subunit ratio
[4] = read-out: Relative maximal current (Imax) normalized to 100 μM acetylcholine, cRNA ratio 1:1 26/27, 100 μM agonist

Chain of Hco-26/27 receptor (A9XX30 entry or part of it): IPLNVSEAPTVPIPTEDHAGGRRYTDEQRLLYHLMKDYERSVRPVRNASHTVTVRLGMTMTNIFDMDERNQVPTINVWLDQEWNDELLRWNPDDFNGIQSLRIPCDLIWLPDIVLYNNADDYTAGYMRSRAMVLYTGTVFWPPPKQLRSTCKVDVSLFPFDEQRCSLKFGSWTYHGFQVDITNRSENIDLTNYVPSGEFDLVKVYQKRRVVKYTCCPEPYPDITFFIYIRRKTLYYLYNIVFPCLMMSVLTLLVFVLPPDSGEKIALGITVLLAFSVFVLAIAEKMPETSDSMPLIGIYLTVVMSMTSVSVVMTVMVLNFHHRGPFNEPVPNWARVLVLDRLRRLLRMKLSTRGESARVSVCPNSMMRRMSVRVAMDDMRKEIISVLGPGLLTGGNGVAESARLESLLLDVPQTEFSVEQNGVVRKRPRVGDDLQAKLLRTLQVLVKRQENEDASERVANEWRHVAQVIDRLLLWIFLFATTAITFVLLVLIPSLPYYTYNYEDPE
Chain of Hco-26/27 receptor (S4VAP0 entry or part of it): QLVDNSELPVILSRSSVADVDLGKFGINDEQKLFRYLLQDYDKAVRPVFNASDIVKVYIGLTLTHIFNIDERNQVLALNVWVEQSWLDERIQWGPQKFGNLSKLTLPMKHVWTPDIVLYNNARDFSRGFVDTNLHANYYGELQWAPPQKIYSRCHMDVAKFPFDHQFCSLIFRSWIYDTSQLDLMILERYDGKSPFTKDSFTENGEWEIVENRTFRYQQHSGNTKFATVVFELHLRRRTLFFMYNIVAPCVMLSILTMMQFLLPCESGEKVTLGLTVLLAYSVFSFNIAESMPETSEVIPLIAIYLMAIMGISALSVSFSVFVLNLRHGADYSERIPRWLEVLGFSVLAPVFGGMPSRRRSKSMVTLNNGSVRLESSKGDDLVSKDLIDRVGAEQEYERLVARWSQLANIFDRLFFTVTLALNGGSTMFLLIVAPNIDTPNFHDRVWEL
Chain of Peq-26/27 receptor (A0A0U2ES58 entry or part of it): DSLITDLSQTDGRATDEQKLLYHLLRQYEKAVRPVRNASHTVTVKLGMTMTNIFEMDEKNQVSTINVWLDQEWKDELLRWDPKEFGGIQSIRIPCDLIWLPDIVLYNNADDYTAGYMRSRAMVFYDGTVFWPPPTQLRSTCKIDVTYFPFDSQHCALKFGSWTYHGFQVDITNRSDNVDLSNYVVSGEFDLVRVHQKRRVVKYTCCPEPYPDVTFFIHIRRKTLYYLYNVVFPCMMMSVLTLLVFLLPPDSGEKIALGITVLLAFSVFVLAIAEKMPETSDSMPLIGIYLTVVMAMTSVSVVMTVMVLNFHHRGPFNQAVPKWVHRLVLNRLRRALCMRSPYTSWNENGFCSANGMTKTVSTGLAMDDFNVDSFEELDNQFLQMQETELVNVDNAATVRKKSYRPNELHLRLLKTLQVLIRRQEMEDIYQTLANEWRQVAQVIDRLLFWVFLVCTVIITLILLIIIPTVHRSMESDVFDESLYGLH
Chain of Peq-26/27 receptor (A0A0U2ES47 entry or part of it): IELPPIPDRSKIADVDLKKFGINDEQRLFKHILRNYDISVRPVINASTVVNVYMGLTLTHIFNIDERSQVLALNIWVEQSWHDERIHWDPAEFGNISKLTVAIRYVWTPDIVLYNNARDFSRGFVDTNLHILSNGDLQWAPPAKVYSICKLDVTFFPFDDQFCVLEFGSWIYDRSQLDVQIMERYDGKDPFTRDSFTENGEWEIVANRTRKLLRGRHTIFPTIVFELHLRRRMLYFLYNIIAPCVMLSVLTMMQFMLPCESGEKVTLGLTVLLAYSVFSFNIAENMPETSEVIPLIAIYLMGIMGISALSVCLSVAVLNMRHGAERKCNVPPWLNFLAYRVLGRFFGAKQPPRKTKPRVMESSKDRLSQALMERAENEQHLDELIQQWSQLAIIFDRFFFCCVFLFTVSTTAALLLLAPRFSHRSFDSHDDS

CN1CCC[C@H]1c1cccnc1 [Nic, (-)-nicotine hydrogen tartrate]
Current elicited, % of ACh response [1]: insensitive
Current elicited, % of ACh response ([2]; 100 μM agonist, normalized to 100 μM ACh current): insensitive

CC(=O)OCC[N+](C)(C)C [ACh, Acetylcholine chloride]
EC50 [1]: 80.1 ± 1.1 µM
Emax at 100 µM ([1]; cRNA ratio 1:1 26/27, 100 μM agonist, read-out: Relative maximal current (Imax) normalized to 100 μM acetylcholine): 100%
Emax at 100 µM ([1]; cRNA ratio 1:5 26/27, 100 μM agonist, read-out: Relative maximal current (Imax) normalized to 100 μM acetylcholine): 100%
Emax at 100 µM ([1]; cRNA ratio 5:1 26/27, 100 μM agonist, read-out: Relative maximal current (Imax) normalized to 100 μM acetylcholine): 100%
EC50 [2]: 34.9 ± 1.1 µM

C[N+](C)(CCOc1ccccc1)Cc1ccccc1 [Beph, bephenium]
Current elicited, % of ACh response [1, 3]: insensitive
Emax at 100 µM [1, 4]: 3.21 ± 1.61%
Emax at 100 µM ([1]; read-out: Relative maximal current (Imax) normalized to 100 μM acetylcholine, cRNA ratio 1:5 26/27, 100 μM agonist): 2.26 ± 2.26%

CN1CCCN=C1/C=C/c1cccc(O)c1 [Oxa, oxantel]
Current elicited, % of ACh response [1, 3]: insensitive
Emax at 100 µM [1, 4]: 0.95 ± 0.95%
